This is an account of results in publication PMC9653606, “Synergistic Effect of DIBOA and Verbascoside from Acanthus mollis Leaf on Tyrosinase Inhibition” (International Journal of Molecular Sciences, 2022).

For the experiment, the target named is mushroom tyrosinase. Briefly: L-DOPA oxidation (dopachrome, […] nm) inhibition assay with Lineweaver-Burk kinetics. In kind it is biochemical.

For orientation: IC50 means the midpoint of a concentration-inhibition curve. Lower therefore signals higher potency. For the compound `O=C1C(O)Oc2ccccc2N1O` (centres unmarked) [compound 1, 2,4-dihydroxy-1,4-benzoxazin-3-one], the midpoint of inhibition, the IC50, lay at 27.2 ± 3 µM.
On to `C[C@@H]1O[C@@H](O[C@@H]2[C@@H](O)[C@H](OCCc3ccc(O)c(O)c3)O[C@H](CO)[C@H]2OC(=O)/C=C/c2ccc(O)c(O)c2)[C@H](O)[C@H](O)[C@H]1O` [compound 8, 2-(3,4-dihydroxyphenyl)ethyl-1-O-α-L-rhamnopyranosyl-(1→3)-(4-O-Ε-caffeoyl)-β-D-glucopyranoside], for which half-maximal inhibition (IC50) required 22.7 ± 2.83 µM.
